Test results reported in patent US10294243B2, “Bicyclic compounds as pesticides” (BAYER CROPSCIENCE AKTIENGESELLSCHAFT, priority 2014, dated 2019).
Where two headings read alike, the source gives them in different places. Blank lines part the entries; values can stand above or below the compound they belong to.

Experiments:
Myzus persicae = Myzus persicae - spray test (Chinese cabbage leaf discs); format: in vivo; conditions: after 6 days; for pest or weed control at 500 g/ha: Myzus persicae, foliar, 144 h, read-out: efficacy (aphids killed)
Procedure: Myzus persicae—Spray Test
Solvent: 78 parts by weight of acetone • • 1.5 parts by weight of dimethylformamide
Emulsifier: alkylaryl polyglycol ether
To produce further test concentrations, the preparation is diluted with emulsifier-containing water.
After 6 days, the efficacy in % is determined 100% means that all the aphids have been killed; 0% means that none of the aphids have been killed.

[1] = log P by HPLC on reversed-phase C18 columns (OECD Guideline 117); method [a] acidic pH 2.7, method [b] neutral pH 7.8; format: physicochemical; conditions: for chromatographic logP: reversed-phase C18 HPLC column
[2] = HPLC reversed-phase C18, method [a] acidic pH 2.7
[3] = HPLC reversed-phase C18, method [b] neutral pH 7.8
[4] = HPLC reversed-phase C18, method [a] acidic pH 2.7, read-out: logP[a]
[5] = HPLC reversed-phase C18, method [b] neutral pH 7.8, read-out: logP[b]

Structure (SMILES): C[S+]([O-])c1cccc(-n2cnc3nc(-c4cccnc4)sc3c2=O)c1 (stereo not drawn) [Compound 14]
efficacy (aphids killed) (Myzus persicae; application rate 500 g/ha): 90%
logP[a] [1, 2]: 1.04
logP[b] [1, 3]: 1.09

Structure (SMILES): CSc1cc(-n2cnc3nc(-c4cccnc4)sc3c2=O)ccc1C [Compound 15]
efficacy (aphids killed) (Myzus persicae; application rate 500 g/ha): 100%
logP[a] [1, 2]: 2.42
logP[b] [1, 3]: 2.35

Structure (SMILES): Cc1ccc(-n2cnc3nc(-c4cccnc4)sc3c2=O)cc1[S+](C)[O-] (stereo not drawn) [Compound 16]
efficacy (aphids killed) (Myzus persicae; application rate 500 g/ha): 90%
logP[a] [1, 2]: 1.25
logP[b] [1, 3]: 1.26

Structure (SMILES): O=c1c2sc(-c3cccnc3)nc2ncn1-c1ccc(F)c(SC(F)(F)F)c1 [Compound 17]
efficacy (aphids killed) (Myzus persicae; application rate 500 g/ha): 90%
logP[a] [1, 2]: 2.70
logP[b] [1, 3]: 2.66

Structure (SMILES): O=c1c2sc(-c3cccnc3)nc2ncn1-c1ccc(F)c([S+]([O-])C(F)(F)F)c1 (stereo not drawn) [Compound 18]
efficacy (aphids killed) (Myzus persicae; application rate 500 g/ha): 90%
logP[a] [1, 2]: 2.01
logP[b] [1, 3]: 1.95

Structure (SMILES): CCSc1cccc(-n2cnc3nc(-c4cccnc4)sc3c2=O)c1 [Compound 19]
efficacy (aphids killed) (Myzus persicae; application rate 100 g/ha): 90%
logP[a] [1, 2]: 2.39
logP[b] [1, 3]: 2.43

Structure (SMILES): CC[S+]([O-])c1cccc(-n2cnc3nc(-c4cccnc4)sc3c2=O)c1 (stereo not drawn) [Compound 20]
efficacy (aphids killed) (Myzus persicae; application rate 500 g/ha): 100%
logP[a] [1, 2]: 1.24
logP[b] [1, 3]: 1.26

chromatographic logP [1, 4]: 2.95
chromatographic logP [1, 5]: 2.91
Structure (SMILES): Cc1cc(F)c(-n2cnc3nc(-c4cccnc4)sc3c2=O)cc1SCC(F)(F)F [Compound 21, 6-{2-Fluoro-4-methyl-5-[(2,2,2-trifluoroethyl)sulphanyl]phenyl}-2-(pyridin-3-yl)[1,3]thiazolo[4,5-d]pyrimidin-7(6H)-one]
pest or weed control at 500 g/ha (Myzus persicae; application rate 500 g/ha): 90%

chromatographic logP [1, 4]: 2.01
chromatographic logP [1, 5]: 1.98
Structure (SMILES): Cc1cc(F)c(-n2cnc3nc(-c4cccnc4)sc3c2=O)cc1[S+]([O-])CC(F)(F)F (stereo not drawn) [Compound 22, 6-{2-Fluoro-4-methyl-5-[(2,2,2-trifluoroethyl)sulphinyl]phenyl}-2-(pyridin-3-yl)[1,3]thiazolo[4,5-d]pyrimidin-7(6H)-one]
pest or weed control at 500 g/ha (Myzus persicae; application rate 500 g/ha): 90%

chromatographic logP [1, 4]: 1.49
chromatographic logP [1, 5]: 1.45
Structure (SMILES): Cc1cc(F)c(-n2cnc3nc(-c4ccc[n+]([O-])c4)sc3c2=O)cc1[S+]([O-])CC(F)(F)F (stereo not drawn) [Compound 23, 6-{2-Fluoro-4-methyl-5-[(2,2,2-trifluoroethyl)sulphinyl]phenyl}-2-(1-oxidopyridin-3-yl)[1,3]thiazolo[4,5-d]pyrimidin-7(6H)-one]
pest or weed control at 500 g/ha (Myzus persicae; application rate 500 g/ha): 100%

Structure (SMILES): CC(C)Sc1cccc(-n2cnc3nc(-c4cccnc4)sc3c2=O)c1 [Compound 24]
efficacy (aphids killed) (Myzus persicae; application rate 500 g/ha): 90%
logP[a] [1, 2]: 2.76
logP[b] [1, 3]: 2.70

Structure (SMILES): CC(C)[S+]([O-])c1cccc(-n2cnc3nc(-c4cccnc4)sc3c2=O)c1 (stereo not drawn) [Compound 25]
efficacy (aphids killed) (Myzus persicae; application rate 500 g/ha): 90%
logP[a] [1, 2]: 1.39
logP[b] [1, 3]: 1.43

Structure (SMILES): CC(C)CSc1cccc(-n2cnc3nc(-c4cccnc4)sc3c2=O)c1 [Compound 26]
efficacy (aphids killed) (Myzus persicae; application rate 500 g/ha): 90%
logP[a] [1, 2]: 3.18
logP[b] [1, 3]: 3.08

Structure (SMILES): CC(C)C[S+]([O-])c1cccc(-n2cnc3nc(-c4cccnc4)sc3c2=O)c1 (stereo not drawn) [Compound 27]
efficacy (aphids killed) (Myzus persicae; application rate 500 g/ha): 90%
logP[a] [1, 2]: 1.73
logP[b] [1, 3]: 1.68

chromatographic logP [1, 4]: 1.09
Structure (SMILES): O=c1c2sc(-c3cccnc3)nc2ncn1Cc1ccccn1 [Compound 34, 2-(Pyridin-3-yl)-6-(pyridin-2-ylmethyl)[1,3]thiazolo[4,5-d]pyrimidin-7(6H)-one]
pest or weed control at 500 g/ha (Myzus persicae; application rate 500 g/ha): 100%

Structure (SMILES): O=c1c2sc(-c3cccnc3)nc2ncn1Cc1cccnc1 [Compound 35]
efficacy (aphids killed) (Myzus persicae; application rate 500 g/ha): 100%
logP[b] [1, 3]: 0.72

Structure (SMILES): O=c1c2sc(-c3cccnc3)nc2ncn1Cc1ccncc1 [Compound 36]
efficacy (aphids killed) (Myzus persicae; application rate 500 g/ha): 90%
logP[a] [1, 2]: 0.55

chromatographic logP [1, 4]: 1.53
chromatographic logP [1, 5]: 1.52
Structure (SMILES): O=c1c2sc(-c3cccnc3)nc2ncn1CC1CC1 [Compound 39, 6-(Cyclopropylmethyl)-2-(pyridin-3-yl)[1,3]thiazolo[4,5-d]pyrimidin-7(6H)-one]
pest or weed control at 500 g/ha (Myzus persicae; application rate 500 g/ha): 100%

Structure (SMILES): O=c1c2sc(-c3cccnc3)nc2ncn1-c1ccccc1F [Compound 40]
efficacy (aphids killed) (Myzus persicae; application rate 500 g/ha): 100%
logP[a] [1, 2]: 1.70
logP[b] [1, 3]: 1.69

Structure (SMILES): O=c1c2sc(-c3cccnc3)nc2ncn1-c1cccc(OCC(F)(F)F)c1 [Compound 41]
efficacy (aphids killed) (Myzus persicae; application rate 500 g/ha): 90%
logP[a] [1, 2]: 2.33
logP[b] [1, 3]: 2.34

Structure (SMILES): O=c1c2sc(-c3cccnc3)nc2ncn1-c1ccc(Cl)cc1 [Compound 43]
efficacy (aphids killed) (Myzus persicae; application rate 500 g/ha): 100%
logP[a] [1, 2]: 2.05
logP[b] [1, 3]: 2.06

Structure (SMILES): O=c1c2sc(-c3cccnc3)nc2ncn1-c1cc([S+]([O-])CC2CC2)ccc1F (stereo not drawn) [Compound 45]
efficacy (aphids killed) (Myzus persicae; application rate 500 g/ha): 100%
logP[a] [1, 2]: 1.63
logP[b] [1, 3]: 1.66

Structure (SMILES): O=c1c2sc(-c3cccnc3)nc2ncn1-c1cc(SCC(F)(F)F)ccc1F [Compound 46]
efficacy (aphids killed) (Myzus persicae; application rate 500 g/ha): 90%
logP[a] [1, 2]: 2.60
logP[b] [1, 3]: 2.56

Structure (SMILES): Cc1ccc(-n2cnc3nc(-c4cccnc4)sc3c2=O)cc1SCC(F)(F)F [Compound 47]
efficacy (aphids killed) (Myzus persicae; application rate 500 g/ha): 90%
logP[a] [1, 2]: 2.73
logP[b] [1, 3]: 2.75

Structure (SMILES): Cc1ccc(-n2cnc3nc(-c4cccnc4)sc3c2=O)cc1[S+]([O-])CC(F)(F)F (stereo not drawn) [Compound 48]
efficacy (aphids killed) (Myzus persicae; application rate 500 g/ha): 100%
logP[a] [1, 2]: 1.86
logP[b] [1, 3]: 1.85

chromatographic logP [1, 4]: 3.04
chromatographic logP [1, 5]: 2.98
Structure (SMILES): Cc1cc(C)c(-n2cnc3nc(-c4cccnc4)sc3c2=O)cc1SCC(F)(F)F [Compound 49, 6-{2,4-Dimethyl-5-[(2,2,2-trifluoroethyl)sulphanyl]phenyl}-2-(pyridin-3-yl)[1,3]thiazolo[4,5-d]pyrimidin-7(6H)-one]
pest or weed control at 500 g/ha (Myzus persicae; application rate 500 g/ha): 100%

chromatographic logP [1, 4]: 2.06
chromatographic logP [1, 5]: 2.01
Structure (SMILES): Cc1cc(C)c([S+]([O-])CC(F)(F)F)cc1-n1cnc2nc(-c3cccnc3)sc2c1=O (stereo not drawn) [Compound 50, 6-{2,4-Dimethyl-5-[(2,2,2-trifluoroethyl)sulphinyl]phenyl}-2-(pyridin-3-yl)[1,3]thiazolo[4,5-d]pyrimidin-7(6H)-one]
pest or weed control at 500 g/ha (Myzus persicae; application rate 500 g/ha): 100%

Structure (SMILES): O=c1c2sc(-c3cccnc3)nc2ncn1-c1cc(SCC(F)(F)F)c(Cl)cc1Cl [Compound 51]
efficacy (aphids killed) (Myzus persicae; application rate 500 g/ha): 100%
logP[a] [1, 2]: 3.25
logP[b] [1, 3]: 3.17

Structure (SMILES): CN(C)C(=O)CSc1cccc(-n2cnc3nc(-c4cccnc4)sc3c2=O)c1 [Compound 52]
efficacy (aphids killed) (Myzus persicae; application rate 500 g/ha): 90%
logP[a] [1, 2]: 1.57
logP[b] [1, 3]: 1.55

chromatographic logP [1, 4]: 1.9
chromatographic logP [1, 5]: 1.91
Structure (SMILES): Cc1cc(F)c(-n2cnc3nc(-c4cccnc4)sc3c2=O)cc1SCC(=O)N(C)C [Compound 54, 2-({4-Fluoro-2-methyl-5-[7-oxo-2-(pyridin-3-yl)[1,3]thiazolo[4,5-d]pyrimidin-6(7H)-yl]phenyl}sulphanyl)-N,N-dimethylacetamide]
pest or weed control at 500 g/ha (Myzus persicae; application rate 500 g/ha): 100%

chromatographic logP [1, 4]: 1.38
chromatographic logP [1, 5]: 1.38
Structure (SMILES): Cc1cc(F)c(-n2cnc3nc(-c4cccnc4)sc3c2=O)cc1[S+]([O-])CC(=O)N(C)C (stereo not drawn) [Compound 55, 2-({4-Fluoro-2-methyl-5-[7-oxo-2-(pyridin-3-yl)[1,3]thiazolo[4,5-d]pyrimidin-6(7H)-yl]phenyl}sulphinyl)-N,N-dimethylacetamide]
pest or weed control at 500 g/ha (Myzus persicae; application rate 500 g/ha): 90%

chromatographic logP [1, 4]: 3.25
chromatographic logP [1, 5]: 3
Structure (SMILES): Cc1cc(F)c(-n2c(C)nc3nc(-c4cccnc4)sc3c2=O)cc1SCC(F)(F)F [Compound 56, 6-{2-Fluoro-4-methyl-5-[(2,2,2-trifluoroethyl)sulphanyl]phenyl}-5-methyl-2-(pyridin-3-yl)[1,3]thiazolo[4,5-d]pyrimidin-7(6H)-one]
pest or weed control at 500 g/ha (Myzus persicae; application rate 500 g/ha): 90%

chromatographic logP [1, 4]: 3.45
chromatographic logP [1, 5]: 3.32
Structure (SMILES): Cc1cc(F)c(-n2nnc3nc(-c4cccnc4)sc3c2=O)cc1SCC(F)(F)F [Compound 58, 3-{2-Fluoro-4-methyl-5-[(2,2,2-trifluoroethyl)sulphanyl]phenyl}-6-(pyridin-3-yl)[1,3]thiazolo[4,5-d][1,2,3]triazin-4(3H)-one]
pest or weed control at 500 g/ha (Myzus persicae; application rate 500 g/ha): 90%

chromatographic logP [1, 4]: 2.4
chromatographic logP [1, 5]: 2.35
Structure (SMILES): Cc1cc(F)c(-n2nnc3nc(-c4cccnc4)sc3c2=O)cc1[S+]([O-])CC(F)(F)F (stereo not drawn) [Compound 59, 3-{2-Fluoro-4-methyl-5-[(2,2,2-trifluoroethyl)sulphinyl]phenyl}-6-(pyridin-3-yl)[1,3]thiazolo[4,5-d][1,2,3]triazin-4(3H)-one]
pest or weed control at 500 g/ha (Myzus persicae; application rate 500 g/ha): 90%

Structure (SMILES): CCSc1ccc(-n2cnc3nc(-c4cccnc4)sc3c2=O)cc1 [Compound 60]
efficacy (aphids killed) (Myzus persicae; application rate 500 g/ha): 100%
logP[a] [1, 2]: 2.41
logP[b] [1, 3]: 2.45

Structure (SMILES): CC[S+]([O-])c1ccc(-n2cnc3nc(-c4cccnc4)sc3c2=O)cc1 (stereo not drawn) [Compound 61]
efficacy (aphids killed) (Myzus persicae; application rate 500 g/ha): 100%
logP[a] [1, 2]: 1.10
logP[b] [1, 3]: 1.22

Structure (SMILES): Cc1cc(SC(F)(F)F)ccc1-n1cnc2nc(-c3cccnc3)sc2c1=O [Compound 64]
efficacy (aphids killed) (Myzus persicae; application rate 500 g/ha): 100%
logP[a] [1, 2]: 2.91
logP[b] [1, 3]: 2.89

Structure (SMILES): CCSc1ccccc1-n1cnc2nc(-c3cccnc3)sc2c1=O [Compound 66]
efficacy (aphids killed) (Myzus persicae; application rate 500 g/ha): 100%
logP[a] [1, 2]: 2.20
logP[b] [1, 3]: 2.21

Structure (SMILES): CC[S+]([O-])c1ccccc1-n1cnc2nc(-c3cccnc3)sc2c1=O (stereo not drawn) [Compound 67]
efficacy (aphids killed) (Myzus persicae; application rate 500 g/ha): 90%
logP[a] [1, 2]: 1.28
logP[b] [1, 3]: 1.29

Structure (SMILES): CSc1cc(-n2cnc3nc(-c4cncc(F)c4)sc3c2=O)ccc1C [Compound 70]
efficacy (aphids killed) (Myzus persicae; application rate 500 g/ha): 100%
logP[a] [1, 2]: 2.82
logP[b] [1, 3]: 2.75
